Test results published in patent US20150313934A1, “Use of PVP-Iodine Liposomes for Treatment of Herpes” (priority 2003, published 2015).

Tests used:
human viruses = settings: aqueous solution mixed with viral suspensions; cited from earlier work
[1] = system: Human ciliated epithelium cells
Method: The toleration of liposomal PVP-iodine solutions for nasal applications was studied by investigating the influence of different test substances on ciliated epithelium cells, the most sensible cells of the mucous membrane. A cytotoxic damage of these cells which would cause a restriction of the niucoclliar clearance can. be determined by a detectable decrease of the ciliary vibration.
Human ciliated epithelium cells were analysed by an in-vitro method which enables the determination of the ciliary activity or ciliary vibration. The corresponding cells were exposed and incubated with 100 je.I test substance at a temperature of 37 C. After an incubation period of 5 minutes the ciliary vibration, was measured.
By using this in-vltro method a nutriant solution (Dulbeco) as standard, a 0.2% chlorohexidine solution (typical antiseptic agent), conventional polyvidone iodine solutions (Betaisodona) .of different concentrations (5.0%, 2.5% and 1.25% PVP-iodine) and a liposomal solution containing 4.5% of PVP-iodine were tested.

In the case of “poly(1-vinyl-2-pyrrolidin-2-on)-iodine complex [PVP-iodine]”, the “antiviral effect on viral suspensions” value (human viruses) is listed as “effective antiviral compound”.

In the case of `N=C(NCCCCCCNC(=N)NC(=N)Nc1ccc(Cl)cc1)NC(=N)Nc1ccc(Cl)cc1` [chlorohexidine], the “ciliary activity / ciliary vibration” value [1] was “decrease of the measured ciliary vibration”.
